# According to US9738634B2, “Heterocyclic amide compound and herbicide” (SYNGENTA PARTICIPATIONS AG, priority 2013, dated 2017):
# How the values were obtained:
# Format in all cases: in vivo
# birds-eye speedwell = experiment: Test Example 3: weedkilling efficacy through soil treatment; p: birds-eye speedwell; settings: soil treatment, treatment dosage 320 g/ha
# In short: (§1)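 Crop and weed responses were judged three weeks after a uniform surface spray of the water-diluted emulsion at the given g/ha rate. Seeds sat beneath about 1.5 cm of sterilized diluvial soil, and boxes stood in a greenhouse at 25 to 30° C.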
# oval-leafed pondweed [1] = experiment: Test Example 1: weedkilling efficacy, preemergent weed treatment in the submerged state; C: oval-leafed pondweed; settings: treatment dosage 320 g/ha
# In short: (§2)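 Submerged pre-emergence treatment, water-surface application of compound emulsion at g/ha dosages; 4 cm flooded alluvial soil, weeds sown and 2.5-leaf rice transplanted same day. Rated after 3 weeks, greenhouse.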
# beet = experiment: Test Example 3: soil treatment, effect on crop; f: beet; settings: soil treatment, treatment dosage 320 g/ha
# In short: as §1
# green foxtail = experiment: Test Example 3: weedkilling efficacy through soil treatment; E: green foxtail; settings: soil treatment, treatment dosage 320 g/ha
# In short: as §1
# wheat = experiment: Test Example 3: soil treatment, effect on crop; e: wheat; settings: soil treatment, treatment dosage 320 g/ha
# In short: as §1
# black-grass = experiment: Test Example 3: weedkilling efficacy through soil treatment; H: black-grass; settings: soil treatment, treatment dosage 320 g/ha
# In short: as §1
# redroot pigweed = experiment: Test Example 3: weedkilling efficacy through soil treatment; L: redroot pigweed; settings: soil treatment, treatment dosage 320 g/ha
# In short: as §1
# oval-leafed pondweed [2] = experiment: Test Example 2: weedkilling efficacy, growth period weed treatment in the submerged state; C: oval-leafed pondweed; settings: treatment dosage 320 g/ha
# In short: (§3)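 Seedlings at 1-2 leaves in 4 cm-deep submerged alluvial soil received emulsion formulations on the water surface, dosed per hectare; effects were judged 3 weeks on.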
# corn = experiment: Test Example 3: soil treatment, effect on crop; c: corn; settings: soil treatment, treatment dosage 320 g/ha
# In short: as §1
# chickweed = experiment: Test Example 3: weedkilling efficacy through soil treatment; N: chickweed; settings: soil treatment, treatment dosage 320 g/ha
# In short: as §1
# crabgrass = experiment: Test Example 3: weedkilling efficacy through soil treatment; D: crabgrass; settings: soil treatment, treatment dosage 320 g/ha
# In short: as §1
# rapeseed = experiment: Test Example 3: soil treatment, effect on crop; g: rapeseed; settings: soil treatment, treatment dosage 320 g/ha
# Source text: (§4) Weedkilling Efficacy Test Through Soil Treatment
# (§5) Sterilized diluvial soil was introduced into 21 cm long, 13 cm wide, 7 cm deep plastic boxes, and seeds of crabgrass, green foxtail, barnyard grass, wild oat, black-grass, Italian ryegrass, common wind-grass, Indian mallow, redroot pigweed, fig-leafed goosefoot, chickweed, catchweed, birds-eye speedwell, corn, soybean, rice, wheat, beet and rapeseed were each spot-sown, and covered with about 1.5 cm of soil. Next, emulsions of compounds of the present invention prepared according to compounding example 2 were diluted with water to give the specified dosages, and applied uniformly onto the soil surface with a small sprayer. The plants were grown by placing the plastic boxes in a greenhouse at 25 to 30° C., and 3 weeks after the pesticide treatment the effect on each type of plant was investigated on the basis of the assessment criteria of test example 1.
# (§6) A: barnyard grass, B: bulrush, C: oval-leafed pondweed, D: crabgrass, E: green foxtail, F: barnyard grass, G: wild oat, H: black-grass, I: Italian ryegrass, J: common wind-grass, K: Indian mallow, L: redroot pigweed, M: fig-leafed goosefoot, N: chickweed, O: catchweed, p: birds-eye speedwell, a: transplanted rice, b: directly sown rice, c: corn, d: soybean, e: wheat, f: beet, g: rapeseed
# (§7) Further, pesticide dosage (g/ha) indicates the concentration regulated such that treatment was with only the stated number of grams (g), when calculated per hectare (ha).
# wild oat = experiment: Test Example 3: weedkilling efficacy through soil treatment; G: wild oat; settings: soil treatment, treatment dosage 320 g/ha
# In short: as §1
# transplanted rice = experiment: Test Example 1: preemergent weed treatment in the submerged state, effect on crop; a: transplanted rice; settings: treatment dosage 320 g/ha
# In short: as §2
# soybean = experiment: Test Example 3: soil treatment, effect on crop; d: soybean; settings: soil treatment, treatment dosage 320 g/ha
# In short: as §1
# bulrush [3] = experiment: Test Example 2: weedkilling efficacy, growth period weed treatment in the submerged state; B: bulrush; settings: treatment dosage 320 g/ha
# In short: as §3
# common wind-grass = experiment: Test Example 3: weedkilling efficacy through soil treatment; J: common wind-grass; settings: soil treatment, treatment dosage 320 g/ha
# Source text: as §4, §5, §6, §7
# barnyard grass [4] = experiment: Test Example 2: weedkilling efficacy, growth period weed treatment in the submerged state; A: barnyard grass; settings: treatment dosage 320 g/ha
# In short: as §3
# Indian mallow = experiment: Test Example 3: weedkilling efficacy through soil treatment; K: Indian mallow; settings: soil treatment, treatment dosage 320 g/ha
# In short: as §1
# directly sown rice = experiment: Test Example 3: soil treatment, effect on crop; b: directly sown rice; settings: soil treatment, treatment dosage 320 g/ha
# In short: as §1
# barnyard grass [5] = experiment: Test Example 1: weedkilling efficacy, preemergent weed treatment in the submerged state; A: barnyard grass; settings: treatment dosage 320 g/ha
# In short: as §2
# Italian ryegrass = experiment: Test Example 3: weedkilling efficacy through soil treatment; I: Italian ryegrass; settings: soil treatment, treatment dosage 320 g/ha
# In short: as §1
# fig-leafed goosefoot = experiment: Test Example 3: weedkilling efficacy through soil treatment; M: fig-leafed goosefoot; settings: soil treatment, treatment dosage 320 g/ha
# In short: as §1
# barnyard grass [6] = experiment: Test Example 3: weedkilling efficacy through soil treatment; F: barnyard grass; settings: soil treatment, treatment dosage 320 g/ha
# Source text: as §4, §5, §6, §7
# bulrush [7] = experiment: Test Example 1: weedkilling efficacy, preemergent weed treatment in the submerged state; B: bulrush; settings: treatment dosage 320 g/ha
# In short: as §2
Compound,"P: birds-eye speedwell, weedkilling efficacy grade (birds-eye speedwell)","C: oval-leafed pondweed, weed kill grade (oval-leafed pondweed [1])","f: beet, effect on crop grade (beet)","E: green foxtail, weedkilling efficacy grade (green foxtail)","e: wheat, effect on crop grade (wheat)","H: black-grass, weedkilling efficacy grade (black-grass)","L: redroot pigweed, weedkilling efficacy grade (redroot pigweed)",C (oval-leafed pondweed) weedkilling efficacy grade (oval-leafed pondweed [2]),"c: corn, effect on crop grade (corn)","N: chickweed, weedkilling efficacy grade (chickweed)","D: crabgrass, weedkilling efficacy grade (crabgrass)","g: rapeseed, effect on crop grade (rapeseed)","G: wild oat, weedkilling efficacy grade (wild oat)","a: transplanted rice, effect on crop grade (transplanted rice)","d: soybean, effect on crop grade (soybean)",B (bulrush) weedkilling efficacy grade (bulrush [3]),"J: common wind-grass, weedkilling efficacy grade (common wind-grass)",A (barnyard grass) weedkilling efficacy grade (barnyard grass [4]),"K: Indian mallow, weedkilling efficacy grade (Indian mallow)","b: directly sown rice, effect on crop grade (directly sown rice)",also measured
CC(C)(C(=O)Nc1cc(C(F)(F)F)cc(F)n1)N1COCN(c2ccccc2)C1=O [A-2-22],"5 (weed kill ratio 90% or more, (practically complete withering))","5 (weed kill ratio 90% or more, (practically complete withering))","4 (weed kill ratio 70% or more, less than 90%)","5 (weed kill ratio 90% or more, (practically complete withering))",0 (weed kill ratio 5% or less (practically no effect)),"5 (weed kill ratio 90% or more, (practically complete withering))","4 (weed kill ratio 70% or more, less than 90%)","5 (weed kill ratio 90% or more, (practically complete withering))",0 (weed kill ratio 5% or less (practically no effect)),"4 (weed kill ratio 70% or more, less than 90%)","5 (weed kill ratio 90% or more, (practically complete withering))","4 (weed kill ratio 70% or more, less than 90%)","5 (weed kill ratio 90% or more, (practically complete withering))","5 (weed kill ratio 90% or more, (practically complete withering))","4 (weed kill ratio 70% or more, less than 90%)","5 (weed kill ratio 90% or more, (practically complete withering))","5 (weed kill ratio 90% or more, (practically complete withering))","5 (weed kill ratio 90% or more, (practically complete withering))","4 (weed kill ratio 70% or more, less than 90%)","5 (weed kill ratio 90% or more, (practically complete withering))","A: barnyard grass, weed kill grade (barnyard grass [5]): 5 (weed kill ratio 90% or more, (practically complete withering)); I: Italian ryegrass, weedkilling efficacy grade (Italian ryegrass): 5 (weed kill ratio 90% or more, (practically complete withering)); M: fig-leafed goosefoot, weedkilling efficacy grade (fig-leafed goosefoot): 4 (weed kill ratio 70% or more, less than 90%); F: barnyard grass, weedkilling efficacy grade (barnyard grass [6]): 5 (weed kill ratio 90% or more, (practically complete withering)); B: bulrush, weed kill grade (bulrush [7]): 5 (weed kill ratio 90% or more, (practically complete withering))"
Cc1cc(Cl)cc(NC(=O)C(C)(C)N2COCN(c3ccccc3)C2=O)n1 [A-2-25],"5 (weed kill ratio 90% or more, (practically complete withering))","5 (weed kill ratio 90% or more, (practically complete withering))","4 (weed kill ratio 70% or more, less than 90%)","5 (weed kill ratio 90% or more, (practically complete withering))",0 (weed kill ratio 5% or less (practically no effect)),"5 (weed kill ratio 90% or more, (practically complete withering))","4 (weed kill ratio 70% or more, less than 90%)","5 (weed kill ratio 90% or more, (practically complete withering))",0 (weed kill ratio 5% or less (practically no effect)),"4 (weed kill ratio 70% or more, less than 90%)","5 (weed kill ratio 90% or more, (practically complete withering))","3 (weed kill ratio 40% or more, less than 70%)","4 (weed kill ratio 70% or more, less than 90%)","3 (weed kill ratio 40% or more, less than 70%)",0 (weed kill ratio 5% or less (practically no effect)),"5 (weed kill ratio 90% or more, (practically complete withering))","5 (weed kill ratio 90% or more, (practically complete withering))","5 (weed kill ratio 90% or more, (practically complete withering))","5 (weed kill ratio 90% or more, (practically complete withering))","5 (weed kill ratio 90% or more, (practically complete withering))","A: barnyard grass, weed kill grade (barnyard grass [5]): 5 (weed kill ratio 90% or more, (practically complete withering)); I: Italian ryegrass, weedkilling efficacy grade (Italian ryegrass): 5 (weed kill ratio 90% or more, (practically complete withering)); M: fig-leafed goosefoot, weedkilling efficacy grade (fig-leafed goosefoot): 4 (weed kill ratio 70% or more, less than 90%); F: barnyard grass, weedkilling efficacy grade (barnyard grass [6]): 5 (weed kill ratio 90% or more, (practically complete withering)); B: bulrush, weed kill grade (bulrush [7]): 5 (weed kill ratio 90% or more, (practically complete withering))"
Cc1cc(Cl)nc(NC(=O)C(C)(C)N2COCN(c3ccccc3)C2=O)c1 [A-2-26],"5 (weed kill ratio 90% or more, (practically complete withering))","5 (weed kill ratio 90% or more, (practically complete withering))","3 (weed kill ratio 40% or more, less than 70%)","5 (weed kill ratio 90% or more, (practically complete withering))","3 (weed kill ratio 40% or more, less than 70%)","5 (weed kill ratio 90% or more, (practically complete withering))","2 (weed kill ratio 20% or more, less than 40%)","5 (weed kill ratio 90% or more, (practically complete withering))",0 (weed kill ratio 5% or less (practically no effect)),"3 (weed kill ratio 40% or more, less than 70%)","5 (weed kill ratio 90% or more, (practically complete withering))","4 (weed kill ratio 70% or more, less than 90%)","5 (weed kill ratio 90% or more, (practically complete withering))","4 (weed kill ratio 70% or more, less than 90%)","2 (weed kill ratio 20% or more, less than 40%)","5 (weed kill ratio 90% or more, (practically complete withering))","5 (weed kill ratio 90% or more, (practically complete withering))","5 (weed kill ratio 90% or more, (practically complete withering))",0 (weed kill ratio 5% or less (practically no effect)),"5 (weed kill ratio 90% or more, (practically complete withering))","A: barnyard grass, weed kill grade (barnyard grass [5]): 5 (weed kill ratio 90% or more, (practically complete withering)); I: Italian ryegrass, weedkilling efficacy grade (Italian ryegrass): 5 (weed kill ratio 90% or more, (practically complete withering)); M: fig-leafed goosefoot, weedkilling efficacy grade (fig-leafed goosefoot): 4 (weed kill ratio 70% or more, less than 90%); F: barnyard grass, weedkilling efficacy grade (barnyard grass [6]): 5 (weed kill ratio 90% or more, (practically complete withering)); B: bulrush, weed kill grade (bulrush [7]): 5 (weed kill ratio 90% or more, (practically complete withering))"
